The record followed here is US11466005B2, “Tricyclic compounds” (JACOBIO PHARMACEUTICALS CO., LTD., priority 2018, dated 2022).

One assay deals with MV-4-11 cells. Description: MV-4-11 cell proliferation assay (MTS). The format is cell-based. To be noted: Homo sapiens, MV4-11, 72 h, 3 days culture. As for the experimental part: 2. Cell Proliferation Assay
MV-4-11 cell proliferation analysis was conducted by the MIS (3-(4,5-dimethylthiazol-2-yl)-5-(3-carboxymethoxyphenyl)-2-(4-sulfophenyl)-2H-tetrazolium, inner salt) assay. Briefly, MV-4-11 cells will be cultured in IMDM (Iscove's Modified Dubecco's Medium) medium supplemented with 10% (v/v) FBS (fetal bovine serum), under the temperature of 37° C., […] and 95% humidity. The cells will be harvested respectively during the logarithmic growth period and counted with hemocytometer. The cell viability is over […] by trypan blue exclusion. Adjust MV-4-11 cells concentrations to 1.2×10^5 cells/mL with complete medium. Add 100 μL cell suspensions to 96-well plates (triplicates for each cell concentration), the final cell densities are 1.2×10^4 cells/well. The next day, dissolve the test compound with DMSO as stock solution. Dispense 5 μL of the stock solution in 1 mL culture media and add 25 μL drug media into 96-well plates. After serially diluting with culture media, the final concentration of the compound will be 0, 0.03, 0.1, 0.3, 1, 3, 10, 30, 100 nM. The plates will be cultured for 3 days, then measured by means of MTS assay. Add PMS (phenazinium methosulfate) solution to MITS solution (1:20) immediately before addition to the culture plate containing cells. Pipet 20 μL of the combined MTS/PMS Solution into each well of the 96 well assay plate containing 100 μL of cells in culture medium. Incubate the plate for 1-4 hours at 37° C. in a humidified, 5% CO2 atmosphere. Record the absorbance at 490 nm using a microplate spectrophotometer (Envision®, PeikinElmer). Fit the data using GraphPad 5.0 and obtain IC50 values.

The target of a further assay is BRD4(BD1) (Homo sapiens (Human), UniProt O60885). Description: BRD4(BD1) biochemical binding assay (HTRF). As to conditions: biotinylated H4 derived acetylated peptide. As for the experimental part: 1. BRD4(BD1) Binding Assays
The BRD4(BD1) biochemical binding assay was performed by Sundia MediTech Co. Ltd. in 384-well white plate (OptiPlate-384, PerkinElmer) using HTRF technology.
Briefly, 20 nL of compounds were transferred to the 384-well plate by Echo® 550 liquid handler (Labcyte, USA), then 5 μL of BRD4(BD1) (Reaction Biology Company, RD-11-157) solution or the assay buffer was added to each well. After incubating at RT for 15 min, 5 μL of the biotinylated H4 derived acetylated peptide (synthesized by GL Biochem (Shanghai) Ltd) and 10 μL of the detection solution (Cisbio Assay) were added to each well. After incubating for 1 h at RT, the HTRF signal was measure at 615 nm and 665 nm using the EnVision Multilabel Plate Reader (PerkinElmer, USA). Results were analyzed with a two-wavelength signal ratio: intensity (665 nm)/intensity (615 nm). The inhibition percentage in the presence of the compound was calculated according to the equation, Percent inhibition=(Max−Signal)/(Max−Min)*100%. Fit the data in GraphPad Prism V5.0 software (San Diego, Calif.) to obtain IC50 values with nonlinear regression analysis using equation, Y=Bottom+(Top−Bottom)/(1+10^((Log IC50−X)×HillSlope), where Y stands for inhibition percentage and X stands for compound concentration.
On the technique in general: TR-FRET usually uses a lanthanide donor and a delayed reading to cut background.

For `Cc1nnn(C)c1-c1cnc2c3c(c(C(C)(C)O)nn3C)n(C(CCC(F)(F)F)c3cocn3)c2c1` (stereo not drawn) [Compound 10, 2-(6-(1,4-dimethyl-1H-1,2,3-triazol-5-yl)-1-methyl-4-(4,4,4-trifluoro-1-(oxazol-4-yl)butyl)-1,4-dihydropyrazolo[3′,4′:4,5]pyrrolo[3,2-b]pyridin-3-yl)propan-2-ol], the values for the 50% inhibitory concentration (IC50) in the assay on MV-4-11 cells and at BRD4(BD1) were 34 nM and 2.2 nM, respectively.

Consider `Cc1cccnc1C(CCC(F)(F)F)n1c2cc(-c3c(C)nnn3C)cnc2c2c1c(C(C)(C)O)nn2C` (stereo not drawn) [Compound 11, 2-(6-(1,4-dimethyl-1H-1,2,3-triazol-5-yl)-1-methyl-4-(4,4,4-trifluoro-1-(3-methylpyridin-2-yl)butyl)-1,4-dihydropyrazolo[3′,4′:4,5]pyrrolo[3,2-b]pyridin-3-yl)propan-2-ol], for which the IC50 (in general, the concentration that inhibits the measured activity by half) turned out to be 7.66 nM in the assay with MV-4-11 cells and 1.3 nM at BRD4(BD1).

Regarding `Cc1nc(C(C2CCOCC2)n2c3cc(-c4c(C)nnn4C)cnc3c3c2c(C(C)(C)O)nn3C)co1` (stereo not drawn) [Compound 12, 2-(6-(1,4-Dimethyl-1H-1,2,3-triazol-5-yl)-1-methyl-4-((2-methyloxazol-4-yl)(tetrahydro-2H-pyran-4-yl)methyl)-1,4-dihydropyrazolo[3′,4′:4,5]pyrrolo[3,2-b]pyridin-3-yl)propan-2-ol], the IC50 with MV-4-11 cells was 10.5 nM; on BRD4(BD1), 1.6 nM.

In the case of `Cc1nnn(C)c1-c1cnc2c3[nH]nc(C(C)(C)O)c3n([C@H](c3ncccc3F)C3CCOCC3)c2c1` [Compound 13, (S)-2-(6-(1,4-Dimethyl-1H-1,2,3-triazol-5-yl)-4-((3-fluoropyridin-2-yl)(tetrahydro-2H-pyran-4-yl)methyl)-1,4-dihydropyrazolo[3′,4′:4,5]pyrrolo[3,2-b]pyridin-3-yl)propan-2-ol], the IC50 in the assay with MV-4-11 cells came out at 1.15 nM; on BRD4(BD1), 0.4 nM.

Take `Cc1nnn(C)c1-c1cnc2c3c(c(C(=O)N(C)C)nn3C)n(C(c3ccccc3)C3CCOCC3)c2c1` (stereo not drawn) [Compound 15, 6-(1,4-Dimethyl-1H-1,2,3-triazol-5-yl)-N,N,1-trimethyl-4-(phenyl(tetrahydro-2H-pyran-4-yl)methyl)-1,4-dihydropyrazolo[3′,4′:4,5]pyrrolo[3,2-b]pyridine-3-carboxamide]: the IC50 with MV-4-11 cells is 25.1 nM; on BRD4(BD1), 0.61 nM.

In the case of `Cc1nnn(C)c1-c1cnc2c3c(c(C(N)=O)nn3C)n(C(c3ccccc3)C3CCOCC3)c2c1` (stereo not drawn) [Compound 16, 6-(1,4-Dimethyl-1H-1,2,3-triazol-5-yl)-1-methyl-4-(phenyl(tetrahydro-2H-pyran-4-yl)methyl)-1,4-dihydropyrazolo[3′,4′:4,5]pyrrolo[3,2-b]pyridine-3-carboxamide], the half-maximal inhibitory concentration (IC50) in the assay on MV-4-11 cells stood at 3.6 nM; at BRD4(BD1), 0.3 nM.

In the case of `CNC(=O)c1nn(C)c2c3ncc(-c4c(C)nnn4C)cc3n(C(c3ccccc3)C3CCOCC3)c12` (stereo not drawn) [Compound 17, 6-(1,4-dimethyl-1H-1,2,3-triazol-5-yl)-N,1-dimethyl-4-(phenyl(tetrahydro-2H-pyran-4-yl)methyl)-1,4-dihydropyrazolo[3′,4′:4,5]pyrrolo[3,2-b]pyridine-3-carboxamide], the IC50 in the assay with MV-4-11 cells is 12.7 nM; at BRD4(BD1) it was 0.55 nM.

Consider `Cc1nnn(C)c1-c1cnc2c3c(c(C(C)(C)N)nn3C)n(C(c3ccccc3)C3CCOCC3)c2c1` (stereo not drawn) [Compound 18, 2-(6-(1,4-Dimethyl-1H-1,2,3-triazol-5-yl)-1-methyl-4-(phenyl(tetrahydro-2H-pyran-4-yl)methyl)-1,4-dihydropyrazolo[3′,4′:4,5]pyrrolo[3,2-b]pyridin-3-yl)propan-2-amine], for which the results for the IC50 with MV-4-11 cells and at BRD4(BD1) were 3.93 nM and 1.1 nM, respectively.

Consider `CCC(O)(CC)c1nn(C)c2c3ncc(-c4c(C)nnn4C)cc3n(C(c3ccccc3)C3CCOCC3)c12` (stereo not drawn) [Compound 19, 3-(6-(1,4-Dimethyl-1H-1,2,3-triazol-5-yl)-1-methyl-4-(phenyl(tetrahydro-2H-pyran-4-yl)methyl)-1,4-dihydropyrazolo[3′,4′:4,5]pyrrolo[3,2-b]pyridin-3-yl)pentan-3-ol], for which the IC50 came out at 7.17 nM in the assay with MV-4-11 cells and 0.79 nM at BRD4(BD1).

On to `COc1cccnc1C(C1CCOCC1)n1c2cc(-c3c(C)nnn3C)cnc2c2c1c(C(C)(C)O)nn2C` (stereo not drawn) [Compound 26, 2-(6-(1,4-Dimethyl-1H-1,2,3-triazol-5-yl)-4-((3-methoxypyridin-2-yl)(tetrahydro-2H-pyran-4-yl)methyl)-1-methyl-1,4-dihydropyrazolo[3′,4′:4,5]pyrrolo[3,2-b]pyridin-3-yl)propan-2-ol], for which the IC50 in the assay with MV-4-11 cells was found to be 0.91 nM; on BRD4(BD1), 0.68 nM.

`CC(=O)Nc1nn(C)c2c3ncc(-c4c(C)nnn4C)cc3n([C@H](c3ccccc3)C3CCOCC3)c12` [Compound 29, (S)—N-(6-(1,4-dimethyl-1H-1,2,3-triazol-5-yl)-1-methyl-4-(phenyl(tetrahydro-2H-pyran-4-yl)methyl)-1,4-dihydropyrazolo[3′,4′:4,5]pyrrolo[3,2-b]pyridin-3-yl)acetamide]: the figures for the IC50 with MV-4-11 cells and at BRD4(BD1) were 24.7 nM and 1.9 nM, respectively.

For the compound `Cc1nnn(C)c1-c1cnc2c3c(c(CN4CCOCC4)nn3C)n(C(c3ccccc3)C3CCOCC3)c2c1` (stereo not drawn) [Compound 34, 4-((6-(1,4-dimethyl-1H-1,2,3-triazol-5-yl)-1-methyl-4-(phenyl(tetrahydro-2H-pyran-4-yl)methyl)-1,4-dihydropyrazolo[3′,4′:4,5]pyrrolo[3,2-b]pyridin-3-yl)methyl)morpholine], the values for the IC50 with MV-4-11 cells and at BRD4(BD1) were 2.16 nM and 0.34 nM, respectively.
